Among the data in patent US11345708B2, “Substituted imidazo[1,2-a]imidazoles as modulators of metabotropic glutamate receptor 4 activity” (Hoffmann-La Roche Inc., priority 2017, dated 2022) are EC50 values, retold here.

The experiment deals with T1, human mGlu4 receptor (Homo sapiens, UniProt Q14833).
T1 construct: expressed in transfected cells; host or cells: HEK-293 (monoclonal, stably transfected)
T1 sequence (Q14833 33-912): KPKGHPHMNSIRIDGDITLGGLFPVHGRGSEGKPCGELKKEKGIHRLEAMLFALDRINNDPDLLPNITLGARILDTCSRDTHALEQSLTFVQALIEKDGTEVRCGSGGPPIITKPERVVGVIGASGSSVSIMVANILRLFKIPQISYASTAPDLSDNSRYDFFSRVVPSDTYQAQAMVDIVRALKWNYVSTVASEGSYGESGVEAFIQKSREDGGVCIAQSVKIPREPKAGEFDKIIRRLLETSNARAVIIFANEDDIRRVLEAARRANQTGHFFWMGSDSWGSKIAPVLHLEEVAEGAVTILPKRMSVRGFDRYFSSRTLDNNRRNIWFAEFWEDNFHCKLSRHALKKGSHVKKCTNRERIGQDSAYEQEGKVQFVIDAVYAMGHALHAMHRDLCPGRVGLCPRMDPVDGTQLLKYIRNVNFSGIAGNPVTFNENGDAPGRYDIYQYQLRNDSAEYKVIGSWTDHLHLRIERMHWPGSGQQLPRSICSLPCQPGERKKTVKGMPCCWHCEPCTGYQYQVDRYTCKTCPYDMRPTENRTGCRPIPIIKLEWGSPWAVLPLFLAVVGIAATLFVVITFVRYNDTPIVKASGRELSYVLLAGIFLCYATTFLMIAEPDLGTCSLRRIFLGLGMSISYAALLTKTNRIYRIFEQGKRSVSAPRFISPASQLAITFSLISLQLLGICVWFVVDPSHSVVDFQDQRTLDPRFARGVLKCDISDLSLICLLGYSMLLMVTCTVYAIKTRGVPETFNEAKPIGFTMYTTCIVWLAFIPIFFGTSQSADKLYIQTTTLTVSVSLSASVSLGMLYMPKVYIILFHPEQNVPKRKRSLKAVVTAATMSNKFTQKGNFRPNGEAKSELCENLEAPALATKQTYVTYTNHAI
Kind of experiment: Ca2+ mobilization in vitro assay on recombinant human mGlu4 expressed in HEK293 cells. The conditions noted are these: HEK-293 cells stably expressing human mGlu4; L-AP4 added at EC20; Fluo-4 fluorescence; read-out: EC50 (uM) mGlu4 PAM. The class given is cell-based. On the procedure: Determination of EC50 Values Using a Ca2+ Mobilization In Vitro Assay on Recombinant Human mGlu4 Expressed in HEK293 Cells:
A monoclonal HEK-293 cell line stably transfected with a cDNA encoding for the human mGlu4 receptor was generated; for the work with mGlu4 Positive Allosteric Modulators (PAMs), a cell line with low receptor expression levels and low constitutive receptor activity was selected to allow the differentiation of agonistic versus PAM activity. Cells were cultured according to standard protocols (Freshney, 2000) in Dulbecco's Modified Eagle Medium with high glucose supplemented with 1 mM glutamine, 10% (vol/vol) heat-inactivated bovine calf serum, Penicillin/Streptomycin, 50 μg/ml hygromycin and 15 μg/ml blasticidin (all cell culture reagents and antibiotics from Invitrogen, Basel, Switzerland).
About 24 hrs before an experiment, 5×10^4 cells/well were seeded in poly-D-lysine coated, black/clear-bottomed 96-well plates. The cells were loaded with 2.5 μM Fluo-4 AM in loading buffer (1×HBSS, 20 mM HEPES) for 1 hr at 37° C. and washed five times with loading buffer. The cells were transferred into a Functional Drug Screening System 7000 (Hamamatsu, Paris, France), and 11 half logarithmic serial dilutions of test compound at 37° C. were added and the cells were incubated for 10-30 min. with on-line recording of fluorescence. Following this pre-incubation step, the agonist (2S)-2-amino-4-phosphonobutanoic acid (L-AP4) was added to the cells at a concentration corresponding to EC20 with on-line recording of fluorescence; in order to account for day-to-day variations in the responsiveness of cells, the EC20 of L-AP4 was determined immediately ahead of each experiment by recording of a full dose-response curve of L-AP4.
Responses were measured as peak increase in fluorescence minus basal (i.e. fluorescence without addition of L-AP4), normalized to the maximal stimulatory effect obtained with saturating concentrations of L-AP4. Graphs were plotted with the % maximal stimulatory using XLfit, a curve fitting program that iteratively plots the data using Levenburg Marquardt algorithm. The single site competition analysis equation used was y=A+((B−A)/(1+((x/C)D))), where y is the % maximal stimulatory effect, A is the minimum y, B is the maximum y, C is the EC50, x is the log 10 of the concentration of the competing compound and D is the slope of the curve (the Hill Coefficient). From these curves the EC50 (drug concentration at which 50% of the maximal receptor activation was achieved), the Hill coefficient as well as the maximal response in % of the maximal stimulatory effect obtained with saturating concentrations of L-AP4 were calculated (see Fig. 1).
A depression of the signal observed after addition of the EC20 concentration of L-AP4 was indicative of an inhibitory activity of the test compound.
Take “7′-[2,6-difluoro-4-[2-(3-pyridyl)ethynyl]phenyl]-3′-(2-methylpyrazol-3-yl)spiro[cyclopropane-1,5′-imidazo[1,2-a]imidazole]-6′-one [Example 30]”: the EC50 turned out to be 0.143 µM.
The same measure for `CC1C(=O)N(c2c(F)cc(C#Cc3ccccc3)cc2F)c2nccn21` (single isomer, unassigned; enantiomer 1) [Example 3, 1-(2,6-difluoro-4-(phenylethynyl)phenyl)-3-methyl-1H-imidazo[1,2-a]imidazol-2(3H)-one (enantiomer 1)]: 0.453 µM.
On to `CC1C(=O)N(c2c(F)cc(C#Cc3ccccc3)cc2F)c2nccn21` (single isomer, unassigned; enantiomer 2) [Example 4, 1-(2,6-difluoro-4-(phenylethynyl)phenyl)-3-methyl-1H-imidazo[1,2-a]imidazol-2(3H)-one (enantiomer 2)], for which the EC50 came out at 0.758 µM.
The same measure for `O=C1N(c2c(F)cc(C#Cc3ccccc3)cc2F)c2nccn2C12CC2` [Example 1, 3-[2,6-Difluoro-4-(2-phenylethynyl)phenyl]-2,3-dihydrospiro[[1,3]diazolo[1,2-a]imidazole-1,1′-cyclopropane]-2-one]: 0.178 µM; for `CC1(C)C(=O)N(c2c(F)cc(C#Cc3ccccc3)cc2Cl)c2nccn21` [Example 2, 1-(2-chloro-6-fluoro-4-(phenylethynyl)phenyl)-3,3-dimethyl-1H-imidazo[1,2-a]imidazol-2(3H)-one]: 0.359 µM; for `CC1(C)C(=O)N(c2c(F)cc(C#Cc3ccccc3)cc2F)c2nccn21` [Example 5, 1-(2,6-difluoro-4-(phenylethynyl)phenyl)-3,3-dimethyl-1H-imidazo[1,2-a]imidazol-2(3H)-one]: 0.468 µM.
Consider `CC(F)(F)c1ccc(-c2cc(F)c(N3C(=O)C4(CC4)n4ccnc43)c(F)c2)cc1` [Example 6, 1′-(4′-(1,1-difluoroethyl)-3,5-difluoro-[1,1′-biphenyl]-4-yl)spiro[cyclopropane-1,3′-imidazo[1,2-a]imidazol]-2′(1′H)-one], for which the EC50 turned out to be 0.383 µM.
The figure for `O=C(Nc1cc(F)c(N2C(=O)C3(CC3)n3ccnc32)c(F)c1)c1ccccn1` [Example 7, N-[3,5-difluoro-4-(6′-oxospiro[cyclopropane-1,5′-imidazo[1,2-a]imidazole]-7′-yl)phenyl]pyridine-2-carboxamide] is 0.541 µM.
The figure for `CC1(C)C(=O)N(c2c(F)cc(C#Cc3ccccc3)cc2F)c2ncc(I)n21` [Example 8, 1-(2,6-difluoro-4-(phenylethynyl)phenyl)-5-iodo-3,3-dimethyl-1H-imidazo[1,2-a]imidazol-2(3H)-one] is 0.418 µM; for `O=C1N(c2c(F)cc(C#Cc3ccccc3)cc2F)c2ncc(I)n2C12CC2` [Example 9, 3-[2,6-difluoro-4-(2-phenylethynyl)phenyl]-6-iodo-2,3-dihydrospiro[[1,3]diazolo[1,2-a]imidazole-1,1′-cyclopropane]-2-one] it is 0.245 µM; for `CC1(C)C(=O)N(c2c(F)cc(C#Cc3ccccc3)cc2Cl)c2ncc(I)n21` [Example 10, 1-(2-chloro-6-fluoro-4-(phenylethynyl)phenyl)-5-iodo-3,3-dimethyl-1H-imidazo[1,2-a]imidazol-2(3H)-one] it is 0.371 µM.
For `O=C(Nc1cc(F)c(N2C(=O)C3(CC3)n3c(-c4ccccn4)cnc32)c(F)c1)c1ccccn1` [Example 11, N-[3,5-difluoro-4-[6′-oxo-3′-(2-pyridyl)spiro[cyclopropane-1,5′-imidazo[1,2-a]imidazole]-7′-yl]phenyl]pyridine-2-carboxamide], the EC50 is 0.059 µM.
The figure for `O=C1N(c2c(F)cc(C#Cc3ccccc3)cc2F)c2ncc(-c3ccccn3)n2C12CC2` [Example 12, 3-[2,6-Difluoro-4-(2-phenylethynyl)phenyl]-6-(pyridin-2-yl)-2,3-dihydrospiro[[1,3]diazolo[1,2-a]imidazole-1,1′-cyclopropane]-2-one] is 0.076 µM.
The figure for `O=C(Nc1cc(F)c(N2C(=O)C3(CC3)n3c(-c4ccncn4)cnc32)c(F)c1)c1ccccn1` [Example 13, N-[3,5-difluoro-4-(6′-oxo-3′-pyrimidin-4-yl-spiro[cyclopropane-1,5′-imidazo[1,2-a]imidazole]-7′-yl)phenyl]pyridine-2-carboxamide] is 0.077 µM.
The same measure for `Cn1cnc(-c2cnc3n2C2(CC2)C(=O)N3c2c(F)cc(C#Cc3ccccc3)cc2F)c1` [Example 14, 7′-[2,6-difluoro-4-(2-phenylethynyl)phenyl]-3′-(1-methylimidazol-4-yl)spiro[cyclopropane-1,5′-imidazo[1,2-a]imidazole]-6′-one]: 0.12 µM.
`CC(C)(C)c1cnn(-c2cc(F)c(N3C(=O)C4(CC4)n4c(-c5ccncn5)cnc43)c(F)c2)c1` [Example 15, 7′-[4-(4-tert-butylpyrazol-1-yl)-2,6-difluoro-phenyl]-3′-pyrimidin-4-yl-spiro[cyclopropane-1,5′-imidazo[1,2-a]imidazole]-6′-one]: the EC50 was found to be 0.232 µM.
The same measure for `O=C1N(c2c(F)cc(C#Cc3cccnc3)cc2F)c2ncc(-c3ccncn3)n2C12CC2` [Example 16, 7′-[2,6-difluoro-4-[2-(3-pyridyl)ethynyl]phenyl]-3′-pyrimidin-4-yl-spiro[cyclopropane-1,5′-imidazo[1,2-a]imidazole]-6′-one]: 0.237 µM.
The figure for `O=C1N(c2c(F)cc(C#Cc3cccnc3)cc2F)c2ncc(-c3ccccn3)n2C12CC2` [Example 17, 7′-[2,6-difluoro-4-[2-(3-pyridyl)ethynyl]phenyl]-3′-(2-pyridyl)spiro[cyclopropane-1,5′-imidazo[1,2-a]imidazole]-6′-one] is 0.283 µM.
Take `O=C1N(c2c(F)cc(C#Cc3ccccc3)cc2F)c2ncc(-c3ccncn3)n2C12CC2` [Example 18, 3′-[2,6-Difluoro-4-(2-phenylethynyl)phenyl]-6′-(pyrimidin-4-yl)-2′,3′-dihydrospiro[cyclopropane-1,1′-imidazo-[1,2-a][1,3]diazole]-2′-one]: the EC50 is 0.361 µM.
As for `CC(C)(C)c1cnn(-c2cc(F)c(N3C(=O)C4(CC4)n4c(-c5ccccn5)cnc43)c(F)c2)c1` [Example 19, 7′-[4-(4-tert-butylpyrazol-1-yl)-2,6-difluoro-phenyl]-3′-(2-pyridyl)spiro[cyclopropane-1,5′-imidazo[1,2-a]imidazole]-6′-one], the EC50 was 0.426 µM.
The same measure for `Cn1cnc(-c2cnc3n2C2(CC2)C(=O)N3c2c(F)cc(C#Cc3cccnc3)cc2F)c1` [Example 20, 7′-[2,6-difluoro-4-[2-(3-pyridyl)ethynyl]phenyl]-3′-(1-methylimidazol-4-yl)spiro[cyclopropane-1,5′-imidazo[1,2-a]imidazole]-6′-one]: 0.442 µM; for `O=C1N(c2c(F)cc(-n3cc(C(F)(F)F)cn3)cc2F)c2ncc(-c3ccccn3)n2C12CC2` [Example 21, 7′-[2,6-difluoro-4-[4-(trifluoromethyl)pyrazol-1-yl]phenyl]-3′-(2-pyridyl)spiro[cyclopropane-1,5′-imidazo[1,2-a]imidazole]-6′-one]: 0.596 µM.
Consider `O=C(Nc1ccccn1)c1cc(F)c(N2C(=O)C3(CC3)n3c(-c4ccccn4)cnc32)c(F)c1` [Example 22, 3,5-difluoro-4-[6′-oxo-3′-(2-pyridyl)spiro[cyclopropane-1,5′-imidazo[1,2-a]imidazole]-7′-yl]-N-(2-pyridyl)benzamide], for which the EC50 came to 0.61 µM.
The same measure for `O=C1N(c2c(F)cc(-n3cc(C(F)(F)F)cn3)cc2F)c2ncc(-c3ccncn3)n2C12CC2` [Example 23, 7′-[2,6-difluoro-4-[4-(trifluoromethyl)pyrazol-1-yl]phenyl]-3′-pyrimidin-4-yl-spiro[cyclopropane-1,5′-imidazo[1,2-a]imidazole]-6′-one]: 0.755 µM; for `O=C1N(c2c(F)cc(C#Cc3ccccc3)cc2F)c2ncc(-c3ccccc3)n2C12CC2` [Example 24, 3-[2,6-Difluoro-4-(2-phenylethynyl)phenyl]-6-phenyl-2,3-dihydrospiro[[1,3]diazolo[1,2-a]imidazole-1,1′-cyclopropane]-2-one]: 0.073 µM.
